Reference: PubChem BioAssay AID977613 (Broad Institute, 2014)
The source made the active and inactive calls. How the calls were made is not given here.

These compounds were tested on Broad 7084-01 inhibitor HTS, set 2 (assay: inhibitors in Broad screen 7084-01, set 2 (AID 977613);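 further: host cells are infected with parasite promastigotes that become internalized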).
For `COCC(=O)N1CC[C@H]2[C@@H]1c1cc(-c3ccc(F)cc3)ccc1N(C)[C@H]2CO`, the active concentration was > 10 µM (inactive).
For `O=C(C[C@@H]1CC[C@H]2[C@@H](COC[C@@H](O)CN2C(=O)Nc2ccc(Cl)c(Cl)c2)O1)NCc1ccc(Cl)cc1`, the active concentration was > 10 µM (inactive).
For `COc1ccc2c3c([nH]c2c1)[C@H](CO)N(CC1CC1)CC31CN(C(=O)c2ccc(F)cc2)C1`, the active concentration was > 10 µM (inactive).
For `CCC(=O)N1[C@H](CO)[C@H]2c3ccccc3N(S(=O)(=O)c3ccccc3C)C[C@H]21`, the active concentration was > 10 µM (inactive).
In the case of `O=C(C[C@H]1CC[C@@H]2[C@H](COC[C@@H](O)CN2C(=O)c2ccncc2)O1)NCc1ccc(-c2ccccc2)cc1`, the active concentration is reported as > 10 µM (inactive).
For `O=C(C[C@@H]1CC[C@H]2[C@@H](COC[C@@H](O)CN2Cc2cc(F)cc(F)c2)O1)NC1CCC1`, the active concentration was > 10 µM (inactive).
In the case of `O=C(c1cccnc1)N1C[C@H]2[C@@H](c3ccccc31)[C@H](CO)N2C(=O)CN1CCOCC1`, the active concentration is reported as under 10 µM.
For `COCC(=O)N1[C@H](CO)[C@H](c2ccccc2-c2ccccc2F)[C@@H]1C#N`, the active concentration was > 10 µM (inactive).
With `CC(C)NC(=O)N1CC2(C1)[C@H](c1ccccc1)[C@@H](CO)N2CCC(F)(F)F` the active concentration was > 10 µM (inactive).
For `O=C(Nc1ccccc1)N1CC(=O)N2[C@H](C1)[C@@H](c1ccc(C#CC3CCCCC3)cc1)[C@@H]2CO`, the active concentration was > 10 µM (inactive).
`CCCN1[C@H](C(=O)NCCCN2CCOCC2)[C@@H](CO)[C@@H]2Cn3c(ccc(-c4ccncc4)c3=O)[C@@H]21` was tested, and the active concentration was > 10 µM (inactive).
In the case of `COc1ccc2c3c(n(C)c2c1)[C@@H](CO)N(S(=O)(=O)c1ccc(C)cc1)CC31CN(C(=O)c2ccccn2)C1`, the active concentration is reported as > 10 µM (inactive).
In the case of `COc1cccc(S(=O)(=O)N2CCCCN3[C@H](C2)[C@@H](c2ccc(C#CCC(C)C)cc2)[C@@H]3CO)c1`, the active concentration is reported as > 10 µM (inactive).
`CN1C(=O)c2cc(NC(=O)c3cccc(F)c3)ccc2OC[C@@H]2O[C@@H](CC(=O)NCC3CCCCC3)CC[C@H]21` was tested, and the active concentration was > 10 µM (inactive).
In the case of `C/C=C/c1ccc2c(c1)[C@@H]1[C@@H](CCN1C(=O)Cc1cccnc1)[C@@H](CO)N2C`, the active concentration is reported as > 10 µM (inactive).
In the case of `CCCNC(=O)N1[C@@H](CO)[C@@H](c2ccccc2)C12CN(C(=O)C1CCCCC1)C2`, the active concentration is reported as > 10 µM (inactive).
`COc1cccc(-c2ccc([C@@H]3[C@@H](CO)N4C(=O)CNC[C@H]34)cc2)c1` was tested, and the active concentration was > 10 µM (inactive).
In the case of `CC(C)NC(=O)N1[C@H](CO)[C@H](c2ccccc2)C12CN(C(=O)Cc1cccnc1)C2`, the active concentration is reported as > 10 µM (inactive).
`CCC(=O)N1[C@@H]2Cn3c(ccc(-c4ccc(F)cc4)c3=O)[C@H]1[C@@H](C(=O)OC)[C@@H]2CO` was tested, and the active concentration was > 10 µM (inactive).
`C/C=C/c1ccc([C@@H]2[C@@H](CO)N3C(=O)CN(C(=O)c4ccncc4)C[C@@H]23)cc1` was tested, and the active concentration was > 10 µM (inactive).
In the case of `O=C(C1CCCCC1)N1CC(=O)N2[C@H](CO)[C@@H](c3ccc(-c4ccccc4F)cc3)[C@H]2C1`, the active concentration is reported as > 10 µM (inactive).
For `COCC#Cc1ccc([C@H]2[C@@H](CO)N3C(=O)CN(C(=O)Nc4ccccc4F)C[C@@H]23)cc1`, the active concentration was > 10 µM (inactive).
With `O=C(Nc1cccc(F)c1)N1C[C@@H]2[C@H](c3ccccc31)[C@H](CO)N2C(=O)Cc1ccccn1` the active concentration was > 10 µM (inactive).
With `O=C(C[C@H]1CC[C@@H]2[C@H](COC[C@@H](O)CN2CC2CC2)O1)NCc1ccc(Cl)cc1` the active concentration was > 10 µM (inactive).
`CC=Cc1ccc2n(c1=O)C[C@H]1[C@H](CO)[C@@H](C(=O)NCCC)N(Cc3cocn3)[C@@H]21` (mixture of isomers) was tested, and the active concentration was > 10 µM (inactive).
For `O=C(C[C@H]1CC[C@H]2[C@@H](COC[C@H](O)CN2CCC(F)(F)F)O1)NCC1CC1`, the active concentration was > 10 µM (inactive).
In the case of `O=C(Nc1ccccc1)N1CC(=O)N2[C@@H](CO)[C@@H](c3ccc(C#CC4CCCCC4)cc3)[C@@H]2C1`, the active concentration is reported as > 10 µM (inactive).
`O=C(CC1CC1)N1CC(=O)N2[C@H](C1)[C@@H](c1ccc(/C=C/c3ccccc3)cc1)[C@@H]2CO` was tested, and the active concentration was > 10 µM (inactive).
`O=C(NCc1cc(F)cc(F)c1)[C@@H]1[C@@H](CO)[C@@H]2Cn3c(cccc3=O)[C@H]1N2` was tested, and the active concentration was > 10 µM (inactive).
In the case of `CN1CCCCN2[C@H](CO)[C@H](c3ccc(-c4ccc(F)cc4)cc3)[C@@H]2C1`, the active concentration is reported as > 10 µM (inactive).
For `O=C(C1CCOCC1)N1CC(=O)N2[C@H](CO)[C@H](c3ccc(C#CCc4ccccc4)cc3)[C@@H]2C1`, the active concentration was > 10 µM (inactive).
In the case of `O=C(c1cccc(F)c1)N1CCCCN2[C@H](CO)[C@H](c3ccc(C#CC4(O)CCCC4)cc3)[C@H]2C1`, the active concentration is reported as > 10 µM (inactive).
`O=C(C[C@H]1CC[C@@H]2[C@H](COC[C@H](O)CN2Cc2ccc(Cl)cc2)O1)NCc1ccccc1Cl` was tested, and the active concentration was > 10 µM (inactive).
In the case of `O=C(Nc1cc(F)ccc1F)N1CC(=O)N2[C@H](C1)[C@@H](c1ccc(/C=C/c3ccccc3)cc1)[C@@H]2CO`, the active concentration is reported as > 10 µM (inactive).
With `COCC(=O)N1[C@H](C#N)[C@@H](c2ccccc2-c2cccc(C)c2)[C@@H]1CO` the active concentration was > 10 µM (inactive).
With `O=C(CC1CC1)N1CC(=O)N2[C@H](CO)[C@@H](c3ccc(/C=C/c4ccccc4)cc3)[C@@H]2C1` the active concentration was > 10 µM (inactive).
In the case of `COCCNC(=O)[C@H]1[C@H](CO)[C@H]2Cn3c(ccc(-c4cccc(F)c4)c3=O)[C@@H]1N2C(=O)NC(C)C`, the active concentration is reported as > 10 µM (inactive).
With `O=C(Cc1ccncc1)N1CC(=O)N2[C@@H](CO)[C@H](c3ccc(Br)cc3)[C@@H]2C1` the active concentration was > 10 µM (inactive).
For `O=C(C[C@H]1CC[C@H]2[C@@H](COC[C@@H](O)CN2Cc2cccc(C(F)(F)F)c2)O1)NCc1ccccc1`, the active concentration was > 10 µM (inactive).
`CN(C)C(=O)[C@H]1[C@H](CO)[C@H]2Cn3c(ccc(-c4cncnc4)c3=O)[C@H]2N1Cc1cc(F)ccc1F` was tested, and the active concentration was > 10 µM (inactive).
In the case of `CCS(=O)(=O)N1CCC2(CC1)CN[C@@H](CO)c1[nH]c3cc(OC)ccc3c12`, the active concentration is reported as > 10 µM (inactive).
With `O=C(NCC1CCCCC1)[C@@H]1[C@@H](CO)[C@@H]2Cn3c(ccc(-c4cncnc4)c3=O)[C@H]1N2` the active concentration was > 10 µM (inactive).
With `COc1cccc(C(=O)N2C[C@@H]3[C@H](c4ccccc42)[C@H](CO)N3Cc2ccccc2Cl)c1` the active concentration was > 10 µM (inactive).
`O=S(=O)(Cc1ccccc1)N1[C@H](CO)[C@@H](c2ccccc2)C12CN(CCC(F)(F)F)C2` was tested, and the active concentration was > 10 µM (inactive).
`Cc1nn(C)cc1NC(=O)C[C@H]1CC[C@@H]2[C@@H](COc3ccc(NC(=O)C4CCOCC4)cc3C(=O)N2C)O1` was tested, and the active concentration was > 10 µM (inactive).
`COc1cccc(-c2ccc([C@H]3[C@@H](CO)N4C(=O)CN(C(=O)c5cccnc5)C[C@@H]34)cc2)c1` was tested, and the active concentration was > 10 µM (inactive).
In the case of `COC(=O)C[C@@H]1CC[C@@H]2[C@@H](COc3ccc(NS(=O)(=O)c4ccccc4Cl)cc3C(=O)N2C)O1`, the active concentration is reported as > 10 µM (inactive).
In the case of `COc1ccccc1C#Cc1ccc2c(c1)[C@@H]1[C@@H](CCN1C(C)=O)[C@@H](CO)N2C`, the active concentration is reported as > 10 µM (inactive).
`COc1ccc(NC(=O)N2CC(=O)N3[C@H](CO)[C@@H](c4ccc(Br)cc4)[C@@H]3C2)cc1` was tested, and the active concentration was > 10 µM (inactive).
For `CCS(=O)(=O)Nc1ccc2c(c1)C(=O)N(C)[C@H]1CC[C@H](CC(=O)N[C@@H]3CCN(Cc4ccccc4)C3)O[C@@H]1CO2`, the active concentration was > 10 µM (inactive).
For `CN1c2ccc(Br)cc2[C@H]2[C@H](CCN2C(=O)Nc2ccccc2F)[C@H]1CO`, the active concentration was > 10 µM (inactive).
In the case of `CN1C(=O)c2cc(NC(=O)c3cnccn3)ccc2OC[C@@H]2O[C@H](CC(=O)NCC3CCCCC3)CC[C@H]21`, the active concentration is reported as > 10 µM (inactive).
With `O=C(C1CCOCC1)N1CC(=O)N2[C@@H](CO)[C@@H](c3ccc(C#CCc4ccccc4)cc3)[C@@H]2C1` the active concentration was > 10 µM (inactive).
`CCNC(=O)C[C@H]1CC[C@@H]2[C@H](COC[C@H](O)CN2C(=O)C2CC2)O1` was tested, and the active concentration was > 10 µM (inactive).
Work on `OC[C@H]1[C@H](c2ccc(Br)cc2)[C@H]2CN(Cc3ccccn3)CCCCN21` yielded an active concentration of under 10 µM.
`CC(C)NC(=O)N1CC[C@@H]2[C@H]1c1cc(Br)ccc1N(C)[C@H]2CO` was tested, and the active concentration was > 10 µM (inactive).
For `Cc1ccc(CN2CC(=O)N3[C@H](CO)[C@@H](c4ccc(-c5ccccc5F)cc4)[C@H]3C2)cc1`, the active concentration was > 10 µM (inactive).
`N#C[C@H]1[C@H](c2ccccc2-c2ccccc2F)[C@H](CO)N1C(=O)Cc1ccccc1` was tested, and the active concentration was > 10 µM (inactive).
With `C[C@@H](O)C#Cc1ccc([C@@H]2[C@@H](CO)N3CCCCN(C(=O)c4ccc5c(c4)OCO5)C[C@H]23)cc1` the active concentration was > 10 µM (inactive).
For `CN1c2ccc(-c3cccc(F)c3)cc2[C@@H]2[C@@H](CCN2C(=O)c2ccccc2F)[C@@H]1CO`, the active concentration was > 10 µM (inactive).
With `COc1cccc(NC(=O)N2C[C@@H](O)COC[C@H]3O[C@H](CC(=O)NC4CCC4)CC[C@@H]32)c1` the active concentration was > 10 µM (inactive).
With `O=C(NC1Cc2ccccc2C1)[C@H]1[C@H](CO)[C@H]2Cn3c(cccc3=O)[C@@H]1N2C(=O)CC1CC1` the active concentration was > 10 µM (inactive).
With `O=S(=O)(c1ccc(F)cc1)N1CCCCN2[C@H](CO)[C@@H](c3ccc(-c4cncnc4)cc3)[C@H]2C1` the active concentration was > 10 µM (inactive).
For `O=C(C[C@H]1CC[C@@H]2[C@H](COC[C@@H](O)CN2Cc2ccccc2)O1)NCCc1ccccc1`, the active concentration was > 10 µM (inactive).
`CN(C)CC(=O)N1[C@H](C#N)[C@@H](c2ccccc2-c2ccccc2F)[C@H]1CO` was tested, and the active concentration was > 10 µM (inactive).
In the case of `CN1C(=O)c2cc(NC(=O)c3cnccn3)ccc2OC[C@H]2O[C@H](CC(=O)NCC3CCCCC3)CC[C@@H]21`, the active concentration is reported as > 10 µM (inactive).
`CCCC#Cc1ccc([C@@H]2[C@H](CO)N3C(=O)CN(S(=O)(=O)c4ccccc4C)C[C@@H]23)cc1` was tested, and the active concentration was > 10 µM (inactive).
With `O=C1CNC[C@H]2[C@H](c3ccc(C4=CCCC4)cc3)[C@H](CO)N12` the active concentration was > 10 µM (inactive).
`O=C(c1ccncc1)N1CC2(C1)[C@@H](c1ccccc1)[C@@H](CO)N2CC1CCOCC1` was tested, and the active concentration was > 10 µM (inactive).
`COc1ccccc1-c1ccccc1[C@@H]1[C@@H](C#N)N(C(=O)C2CCOCC2)[C@H]1CO` was tested, and the active concentration was > 10 µM (inactive).
